Measured values as given in PMC10046369, “Low-Affinity/High-Selectivity Dopamine Transport Inhibition Sufficient to Rescue Cognitive Functions in the Aging Rat” (Biomolecules, 2023).

Assays:
[1] = target: T1, NPBW1 (h) (Homo sapiens, UniProt P48145); assay: cell-based; set-up: functional GPCR antagonist screen (Eurofins Cerep), percent inhibition of control agonist response; conditions: antagonist effect, against control agonist; read-out: % Inhibition of Control Agonist Response, Mean
T1 construct: gene NPBWR1

[2] = target: T2, NK3 (h) (Homo sapiens, UniProt P29371); assay: cell-based; set-up: functional GPCR antagonist screen (Eurofins Cerep), percent inhibition of control agonist response; conditions: antagonist effect, against control agonist; read-out: % Inhibition of Control Agonist Response, Mean
T2 construct: gene TACR3

[3] = target: T3, MC5 (h) (Homo sapiens, UniProt P33032); assay: cell-based; set-up: functional GPCR antagonist screen (Eurofins Cerep), percent inhibition of control agonist response; conditions: antagonist effect, against control agonist; read-out: % Inhibition of Control Agonist Response, Mean
T3 construct: gene MC5R

[4] = target: T4, FP (h) (Homo sapiens, UniProt P43088); assay: cell-based; set-up: functional GPCR antagonist screen (Eurofins Cerep), percent inhibition of control agonist response; conditions: antagonist effect, against control agonist; read-out: % Inhibition of Control Agonist Response, Mean
T4 construct: gene PTGFR

[5] = target: T5, MrgD (h) (Homo sapiens, UniProt Q8TDS7); assay: cell-based; set-up: functional GPCR antagonist screen (Eurofins Cerep), percent inhibition of control agonist response; conditions: antagonist effect, against control agonist; read-out: % Inhibition of Control Agonist Response, Mean
T5 construct: gene MRGPRD

[6] = target: T6, human dopamine transporter (hDAT) (Homo sapiens, UniProt Q01959); assay: radioligand competition binding ([3H]BTCP), hDAT expressed in CHO cells; type: cell-based
T6 construct: gene SLC6A3

[7] = target: T7, CCK1 (CCKA) (Homo sapiens, UniProt P32238); assay: cell-based; set-up: Eurofins Cerep functional GPCR screen, antagonist mode, inhibition of control agonist response; conditions: read-out: % Inhibition of Control Agonist Response, Mean
T7 construct: gene CCKAR

[8] = target: T8, FFA1 (Homo sapiens, UniProt O14842); assay: cell-based; set-up: Eurofins Cerep functional GPCR screen, antagonist mode, inhibition of control agonist response; conditions: read-out: % Inhibition of Control Agonist Response, Mean
T8 construct: gene FFAR1

[9] = target: T9, B2 (Homo sapiens, UniProt P30411); assay: cell-based; set-up: Eurofins Cerep functional GPCR screen, antagonist mode, inhibition of control agonist response; conditions: read-out: % Inhibition of Control Agonist Response, Mean
T9 construct: gene BDKRB2

[10] = target: CCR1 (Homo sapiens, UniProt P32246); assay: cell-based; set-up: Eurofins Cerep functional GPCR screen, antagonist mode, inhibition of control agonist response; conditions: read-out: % Inhibition of Control Agonist Response, Mean
[11] = target: T10, secretin (Homo sapiens, UniProt P47872); assay: cell-based; set-up: Eurofins Cerep functional GPCR screen, antagonist mode, inhibition of control agonist response; conditions: read-out: % Inhibition of Control Agonist Response, Mean
T10 construct: gene SCTR

[12] = target: OXGR1 GPR99 (Homo sapiens, UniProt Q96P68); assay: cell-based; set-up: Eurofins Cerep functional GPCR screen, antagonist mode, inhibition of control agonist response; conditions: read-out: % Inhibition of Control Agonist Response, Mean
[13] = target: CCR4 (Homo sapiens, UniProt P51679); assay: cell-based; set-up: Eurofins Cerep functional GPCR screen, antagonist mode, inhibition of control agonist response; conditions: read-out: % Inhibition of Control Agonist Response, Mean
[14] = target: T11, C3aR (Homo sapiens, UniProt Q16581); assay: cell-based; set-up: Eurofins Cerep functional GPCR screen, antagonist mode, inhibition of control agonist response; conditions: read-out: % Inhibition of Control Agonist Response, Mean
T11 construct: gene C3AR1

[15] = target: T12, GAL2 (Homo sapiens, UniProt O43603); assay: cell-based; set-up: Eurofins Cerep functional GPCR screen, antagonist mode, inhibition of control agonist response; conditions: read-out: % Inhibition of Control Agonist Response, Mean
T12 construct: gene GALR2

[16] = target: T13, D3 (Homo sapiens, UniProt P35462); assay: cell-based; set-up: Eurofins Cerep functional GPCR screen, antagonist mode, inhibition of control agonist response; conditions: read-out: % Inhibition of Control Agonist Response, Mean
T13 construct: gene DRD3

[17] = target: T14, ChemR23 (Homo sapiens, UniProt Q99788); assay: cell-based; set-up: Eurofins Cerep functional GPCR screen, antagonist mode, inhibition of control agonist response; conditions: read-out: % Inhibition of Control Agonist Response, Mean
T14 construct: gene CMKLR1

[18] = target: T15, FFA4 (GPR120) (Homo sapiens, UniProt Q5NUL3); assay: cell-based; set-up: Eurofins Cerep functional GPCR screen, antagonist mode, inhibition of control agonist response; conditions: read-out: % Inhibition of Control Agonist Response, Mean
T15 construct: gene FFAR4

[19] = target: T16, α2A (Homo sapiens, UniProt P08913); assay: cell-based; set-up: Eurofins Cerep functional GPCR screen, antagonist mode, inhibition of control agonist response; conditions: read-out: % Inhibition of Control Agonist Response, Mean
T16 construct: gene ADRA2A

[20] = target: T17, TGR5 (Homo sapiens, UniProt Q8TDU6); assay: cell-based; set-up: Eurofins Cerep functional GPCR screen, antagonist mode, inhibition of control agonist response; conditions: read-out: % Inhibition of Control Agonist Response, Mean
T17 construct: gene GPBAR1

[21] = target: T18, GPR109A (Homo sapiens, UniProt Q8TDS4); assay: cell-based; set-up: Eurofins Cerep functional GPCR screen, antagonist mode, inhibition of control agonist response; conditions: read-out: % Inhibition of Control Agonist Response, Mean
T18 construct: gene HCAR2

[22] = target: XCR1 / GPR5 (Homo sapiens, UniProt P46094); assay: cell-based; set-up: Eurofins Cerep functional GPCR screen, antagonist mode, inhibition of control agonist response; conditions: read-out: % Inhibition of Control Agonist Response, Mean
[23] = target: T19, CT (Calcitonin) (Homo sapiens, UniProt P30988); assay: cell-based; set-up: Eurofins Cerep functional GPCR screen, antagonist mode, inhibition of control agonist response; conditions: read-out: % Inhibition of Control Agonist Response, Mean
T19 construct: gene CALCR

[24] = target: T20, A3 (Homo sapiens, UniProt P0DMS8); assay: cell-based; set-up: Eurofins Cerep functional GPCR screen, antagonist mode, inhibition of control agonist response; conditions: read-out: % Inhibition of Control Agonist Response, Mean
T20 construct: gene ADORA3

[25] = target: T21, PFPK5(P.falciparum) (Plasmodium falciparum, UniProt P61075); assay: biochemical; set-up: KINOMEscan competition binding panel, per cent of control; conditions: read-out: %Ctrl @ 2800nM
T21 construct: gene CRK2

T20 sequence (P0DMS8 whole entry): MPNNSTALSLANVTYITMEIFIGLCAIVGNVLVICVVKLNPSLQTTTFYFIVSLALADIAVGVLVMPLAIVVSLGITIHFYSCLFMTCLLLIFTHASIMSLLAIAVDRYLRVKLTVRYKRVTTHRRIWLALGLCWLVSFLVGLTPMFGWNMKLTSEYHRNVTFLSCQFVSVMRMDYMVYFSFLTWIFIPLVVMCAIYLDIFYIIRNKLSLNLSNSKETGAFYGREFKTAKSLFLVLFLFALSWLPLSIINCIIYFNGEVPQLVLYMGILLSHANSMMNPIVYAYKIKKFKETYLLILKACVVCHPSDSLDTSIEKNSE
T8 sequence (O14842 whole entry): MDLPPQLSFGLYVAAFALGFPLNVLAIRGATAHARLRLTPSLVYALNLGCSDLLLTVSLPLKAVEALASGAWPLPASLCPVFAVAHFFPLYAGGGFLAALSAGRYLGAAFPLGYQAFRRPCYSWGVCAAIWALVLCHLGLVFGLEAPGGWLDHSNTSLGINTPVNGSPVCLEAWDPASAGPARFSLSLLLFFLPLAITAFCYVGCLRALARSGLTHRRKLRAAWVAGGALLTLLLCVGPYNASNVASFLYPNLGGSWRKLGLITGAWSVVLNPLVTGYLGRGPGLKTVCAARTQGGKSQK
T14 sequence (Q99788 whole entry): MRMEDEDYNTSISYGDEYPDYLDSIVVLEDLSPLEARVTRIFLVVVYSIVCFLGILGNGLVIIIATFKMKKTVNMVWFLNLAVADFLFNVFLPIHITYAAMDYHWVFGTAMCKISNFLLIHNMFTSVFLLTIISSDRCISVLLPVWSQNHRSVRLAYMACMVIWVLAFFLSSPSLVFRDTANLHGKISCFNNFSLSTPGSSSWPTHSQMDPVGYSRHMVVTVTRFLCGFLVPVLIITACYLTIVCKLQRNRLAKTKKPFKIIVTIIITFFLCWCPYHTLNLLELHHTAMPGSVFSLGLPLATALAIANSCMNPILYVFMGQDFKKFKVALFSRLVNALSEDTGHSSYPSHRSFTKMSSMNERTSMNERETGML
T3 sequence (P33032 whole entry): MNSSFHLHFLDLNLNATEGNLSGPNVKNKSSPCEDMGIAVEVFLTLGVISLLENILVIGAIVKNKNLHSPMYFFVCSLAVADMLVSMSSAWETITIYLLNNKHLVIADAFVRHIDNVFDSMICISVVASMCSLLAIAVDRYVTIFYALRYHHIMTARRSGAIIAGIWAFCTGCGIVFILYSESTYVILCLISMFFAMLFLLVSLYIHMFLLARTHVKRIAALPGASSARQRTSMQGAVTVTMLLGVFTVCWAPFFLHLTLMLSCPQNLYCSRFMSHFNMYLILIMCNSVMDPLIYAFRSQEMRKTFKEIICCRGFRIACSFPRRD
T4 sequence (P43088 whole entry): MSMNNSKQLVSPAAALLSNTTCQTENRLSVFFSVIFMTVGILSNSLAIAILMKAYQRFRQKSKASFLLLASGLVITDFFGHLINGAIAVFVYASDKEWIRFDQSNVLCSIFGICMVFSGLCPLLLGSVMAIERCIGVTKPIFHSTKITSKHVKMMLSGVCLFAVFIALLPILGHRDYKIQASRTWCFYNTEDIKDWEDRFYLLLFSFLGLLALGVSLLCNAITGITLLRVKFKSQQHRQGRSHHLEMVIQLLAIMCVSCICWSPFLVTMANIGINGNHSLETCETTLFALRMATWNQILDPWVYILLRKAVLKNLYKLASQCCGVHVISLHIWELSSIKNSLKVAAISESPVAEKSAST
CCR1, sequence (P32246 whole entry): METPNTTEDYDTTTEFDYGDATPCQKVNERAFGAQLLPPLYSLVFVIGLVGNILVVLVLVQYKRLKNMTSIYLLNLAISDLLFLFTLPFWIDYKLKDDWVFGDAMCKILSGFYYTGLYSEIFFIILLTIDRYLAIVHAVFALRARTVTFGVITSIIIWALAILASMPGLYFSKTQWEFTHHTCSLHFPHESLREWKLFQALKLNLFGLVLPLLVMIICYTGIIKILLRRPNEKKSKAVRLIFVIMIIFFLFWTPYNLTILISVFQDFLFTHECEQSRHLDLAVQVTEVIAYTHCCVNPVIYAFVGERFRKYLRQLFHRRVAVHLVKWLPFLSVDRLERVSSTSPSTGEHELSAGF
T9 sequence (P30411 whole entry): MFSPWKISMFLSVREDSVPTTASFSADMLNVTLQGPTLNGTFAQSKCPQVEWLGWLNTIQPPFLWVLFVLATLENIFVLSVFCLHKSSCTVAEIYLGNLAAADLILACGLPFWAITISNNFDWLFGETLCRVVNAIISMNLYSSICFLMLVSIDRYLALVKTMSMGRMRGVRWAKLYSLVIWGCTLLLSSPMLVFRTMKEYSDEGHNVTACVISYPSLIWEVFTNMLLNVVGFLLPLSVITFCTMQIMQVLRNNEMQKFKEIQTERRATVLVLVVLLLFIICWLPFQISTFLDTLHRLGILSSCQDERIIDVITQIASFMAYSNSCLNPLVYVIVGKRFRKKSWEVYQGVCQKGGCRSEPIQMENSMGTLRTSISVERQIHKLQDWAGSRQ
T18 sequence (Q8TDS4 whole entry): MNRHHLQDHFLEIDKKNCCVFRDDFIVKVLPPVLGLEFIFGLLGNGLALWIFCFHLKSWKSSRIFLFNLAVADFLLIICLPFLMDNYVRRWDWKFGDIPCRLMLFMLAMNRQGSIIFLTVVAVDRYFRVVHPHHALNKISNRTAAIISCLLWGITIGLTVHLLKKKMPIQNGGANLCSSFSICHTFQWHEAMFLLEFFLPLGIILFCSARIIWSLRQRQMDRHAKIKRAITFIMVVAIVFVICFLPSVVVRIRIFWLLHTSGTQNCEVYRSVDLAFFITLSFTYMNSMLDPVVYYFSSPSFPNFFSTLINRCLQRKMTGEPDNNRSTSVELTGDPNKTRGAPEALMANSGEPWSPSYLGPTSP
T17 sequence (Q8TDU6 whole entry): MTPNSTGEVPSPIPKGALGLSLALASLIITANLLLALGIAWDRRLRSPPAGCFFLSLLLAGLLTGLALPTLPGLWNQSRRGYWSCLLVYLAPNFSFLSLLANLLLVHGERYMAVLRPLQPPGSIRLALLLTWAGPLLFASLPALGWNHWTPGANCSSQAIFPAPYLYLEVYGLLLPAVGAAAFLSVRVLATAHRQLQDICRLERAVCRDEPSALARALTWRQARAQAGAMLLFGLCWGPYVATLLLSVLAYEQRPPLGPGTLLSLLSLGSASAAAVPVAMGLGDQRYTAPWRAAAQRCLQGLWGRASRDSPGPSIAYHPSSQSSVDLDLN
XCR1 / GPR5, sequence (P46094 whole entry): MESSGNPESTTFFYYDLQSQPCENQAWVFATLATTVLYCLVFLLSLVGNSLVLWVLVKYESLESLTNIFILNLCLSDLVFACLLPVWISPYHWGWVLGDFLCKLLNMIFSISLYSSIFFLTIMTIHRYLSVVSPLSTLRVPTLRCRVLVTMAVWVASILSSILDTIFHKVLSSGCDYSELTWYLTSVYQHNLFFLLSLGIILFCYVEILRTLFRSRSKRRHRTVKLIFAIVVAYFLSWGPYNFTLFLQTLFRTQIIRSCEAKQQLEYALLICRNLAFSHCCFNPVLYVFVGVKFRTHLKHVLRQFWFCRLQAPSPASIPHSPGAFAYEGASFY
T12 sequence (O43603 whole entry): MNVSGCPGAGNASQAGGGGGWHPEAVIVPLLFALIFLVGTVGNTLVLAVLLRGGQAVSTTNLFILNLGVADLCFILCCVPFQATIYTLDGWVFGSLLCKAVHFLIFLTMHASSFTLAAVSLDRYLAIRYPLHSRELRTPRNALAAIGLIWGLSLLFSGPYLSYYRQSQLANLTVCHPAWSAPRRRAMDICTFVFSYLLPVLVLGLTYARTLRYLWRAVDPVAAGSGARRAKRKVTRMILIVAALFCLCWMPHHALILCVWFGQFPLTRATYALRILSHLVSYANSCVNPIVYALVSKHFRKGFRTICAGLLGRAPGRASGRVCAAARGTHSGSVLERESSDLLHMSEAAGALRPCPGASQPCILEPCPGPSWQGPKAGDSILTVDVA
T5 sequence (Q8TDS7 whole entry): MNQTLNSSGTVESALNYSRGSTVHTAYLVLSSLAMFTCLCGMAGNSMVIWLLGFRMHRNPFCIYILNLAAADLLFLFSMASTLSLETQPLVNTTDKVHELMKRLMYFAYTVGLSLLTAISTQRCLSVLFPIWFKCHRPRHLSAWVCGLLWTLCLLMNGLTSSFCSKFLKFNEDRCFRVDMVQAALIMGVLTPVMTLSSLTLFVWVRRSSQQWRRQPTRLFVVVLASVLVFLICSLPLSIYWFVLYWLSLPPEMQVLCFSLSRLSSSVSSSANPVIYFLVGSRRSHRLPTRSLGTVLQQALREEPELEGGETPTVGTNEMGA
T1 sequence (P48145 whole entry): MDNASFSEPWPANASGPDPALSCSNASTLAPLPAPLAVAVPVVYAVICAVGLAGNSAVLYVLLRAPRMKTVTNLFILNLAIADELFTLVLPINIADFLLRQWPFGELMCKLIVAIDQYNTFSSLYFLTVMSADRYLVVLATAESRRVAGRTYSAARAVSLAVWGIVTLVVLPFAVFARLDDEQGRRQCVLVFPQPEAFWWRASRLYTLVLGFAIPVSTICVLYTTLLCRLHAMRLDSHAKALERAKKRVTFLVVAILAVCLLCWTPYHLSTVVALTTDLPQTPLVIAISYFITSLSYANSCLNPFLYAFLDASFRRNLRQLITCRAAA
OXGR1 GPR99, sequence (Q96P68 whole entry): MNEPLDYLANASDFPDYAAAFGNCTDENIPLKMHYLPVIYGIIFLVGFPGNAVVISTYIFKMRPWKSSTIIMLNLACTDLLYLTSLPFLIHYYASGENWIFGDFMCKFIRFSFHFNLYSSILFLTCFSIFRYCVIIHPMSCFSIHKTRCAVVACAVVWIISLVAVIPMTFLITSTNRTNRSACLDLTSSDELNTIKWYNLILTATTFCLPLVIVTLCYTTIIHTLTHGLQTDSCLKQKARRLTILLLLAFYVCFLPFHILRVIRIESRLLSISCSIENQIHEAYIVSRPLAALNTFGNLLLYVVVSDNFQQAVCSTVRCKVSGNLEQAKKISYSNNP

[O-][S@@+](Cc1cncs1)C(c1ccccc1)c1ccccc1 [S-CE-123, (S)-5-((Benzhydrylsulfinyl)Methyl)Thiazole]
inhibition at 2.8 µM [1]: -1.9%
inhibition at 2.8 µM [2]: -5.1%
inhibition at 2.8 µM [3]: -8.9%
inhibition at 2.8 µM [4]: 6.7%
inhibition at 2.8 µM [5]: 30%
Ki [6]: 610 nM
inhibition at 2.8 µM [7]: 18.2%
inhibition at 2.8 µM [8]: -2.8%
inhibition at 2.8 µM [9]: -32.1%
inhibition at 2.8 µM [10]: -1.5%
inhibition at 2.8 µM [11]: 17.6%
inhibition at 2.8 µM [12]: -10.2%
inhibition at 2.8 µM [13]: -5.8%
inhibition at 2.8 µM [14]: 11.4%
inhibition at 2.8 µM [15]: -4.8%
inhibition at 2.8 µM [16]: -1.9%
inhibition at 2.8 µM [17]: -1.6%
inhibition at 2.8 µM [18]: -14.4%
inhibition at 2.8 µM [19]: -8.4%
inhibition at 2.8 µM [20]: -0.3%
inhibition at 2.8 µM [21]: -11.6%
inhibition at 2.8 µM [22]: -9.2%
inhibition at 2.8 µM [23]: -21.7%
inhibition at 2.8 µM [24]: -1.8%
remaining binding at 2.8 µM [25]: 84%
